Measured values: patent US10254297B2, “Assay for methoxetamine” (Randox Laboratories Ltd, priority 2015, dated 2019)
≈ marks a conversion by molar mass, not a printed value.

System: antibody raised against Immunogen 2 (Example 9), Tracer 1
Test: Competitive assay (ELISA) for cross-reactivity measurement
Format: binding, sheep
Conditions: for CCR (competitive cross reactivity): Table 1, antibodies raised against Immunogen 2, Tracer 1, relative to methoxetamine = 100%, summarised from FIGS. 5 to 7; for Antibody binding, in words: Table 1 and FIGS. 5 to 7, antibody of the invention; for IC50 used in % CCR calculation: standard concentration giving 50% inhibition of maximal signal
[1] = FIG. 5 (antibody derived from sheep 1)

Row | SMILES | CCR (competitive cross reactivity) | Antibody binding, in words | IC50 used in % CCR calculation [1] | % CCR (compared to methoxetamine) (FIG. 5 (antibody derived from sheep 1), IC50 methoxetamine / IC50 analyte x 100)
1 | CNC1(c2ccccc2Cl)CCCCC1=O (stereo not drawn) [Ketamine] | <5.00% | does not bind | – | –
2 | CCNC1(c2cccc(OC)c2)CCCCC1=O (stereo not drawn) [Methoxetamine, 2-(3-methoxyphenyl)-2-(ethylamino)cyclohexanone] | 100.00% | high affinity | 0.47 ng/mL (≈ 1.9 nM) | –
3 | COc1cccc(C2(N)CCCCC2=O)c1 (stereo not drawn) [N-desethylmethoxetamine, 2-amino-2-(3-methoxyphenyl)cyclohexanone] | >5.00% | substantial binding | 1.96 ng/mL (≈ 8.94 nM) | 24%
4 | NC1(c2ccccc2Cl)CCCCC1=O (stereo not drawn) [Norketamine] | <5.00% | – | – | –
5 | c1ccc(C2(N3CCCCC3)CCCCC2)cc1 [Phencyclidine] | <5.00% | does not bind | – | –
6 | CCOC(=O)C1(c2ccccc2)CCC=CC1N(C)C (stereo not drawn) [Tilidine] | <5.00% | – | – | –
7 | COc1cccc(C2(O)CCCCC2CN(C)C)c1 (stereo not drawn) [Tramadol] | <5.00% | does not bind | – | –
